US6143749A, “Heterocyclic substituted cyclopentane compounds” (Abbott Laboratories, priority 1996, dated 2000)
pIC50: −log10 of the molar value.

Key:
[1] = target: adenosine kinase (Homo sapiens, UniProt P55263); experiment: inhibition of adenosine kinase activity in vitro; type: biochemical
Excerpt: The adenosine kinase to be inhibited can be located in vitro, in situ or in vivo. Where the adenosine kinase is located in vitro, adenosine kinase is contacted with the inhibitor compound, typically by adding the compound to an aqueous solution containing the enzyme, radiolabeled substrate adenosine, magnesium chloride and ATP. The enzyme can exist in intact cells or in isolated subcellular fractions containing the enzyme. The enzyme is then maintained in the presence of the inhibitor for a period of time and under suitable physiological conditions. Means for determining maintainence times are well known in the art and depend inter alia on the concentrations of enzyme and the physiological conditions. Suitable physiological conditions are those necessary to maintain adenosine kinase viability and include temperature, acidity, tonicity and the like. Inhibition of adenosine kinase can be performed, by example, according to standard procedures well known in the art (Yamada, et al, Comp. Biochem. Physiol. 1982, 71B: 367-372).
In vitro adenosine kinase activity can be measured using any of the standard procedures well known in the art. By way of example, cells containing adenosine kinase, such as IMR-32 human -neuroblastoma cells, are cultured in the presence and absence of an inhibitor. Inhibition is measured as the ability to inhibit phosphorylation of endogenous or externally applied ^14 C-adenosine by these cells. The cells can be intact or broken. The specificity of adenosine kinase inhibitory activity is determined by studying the effects of inhibitors on adenosine A1 and A2a receptor binding, adenosine deaminase activity and adenosine transport.
Numerous inhibitor compounds of the present invention were tested in vitro and found to inhibit adenosine kinase activity. The results of some representative studies are shown below in Tables 1 and 2.

[2] = test system: adenosine kinase; conditions: literature, in words; cited from earlier work

adenosine kinase (Homo sapiens, UniProt P55263), sequence (P55263 whole entry, species assumed): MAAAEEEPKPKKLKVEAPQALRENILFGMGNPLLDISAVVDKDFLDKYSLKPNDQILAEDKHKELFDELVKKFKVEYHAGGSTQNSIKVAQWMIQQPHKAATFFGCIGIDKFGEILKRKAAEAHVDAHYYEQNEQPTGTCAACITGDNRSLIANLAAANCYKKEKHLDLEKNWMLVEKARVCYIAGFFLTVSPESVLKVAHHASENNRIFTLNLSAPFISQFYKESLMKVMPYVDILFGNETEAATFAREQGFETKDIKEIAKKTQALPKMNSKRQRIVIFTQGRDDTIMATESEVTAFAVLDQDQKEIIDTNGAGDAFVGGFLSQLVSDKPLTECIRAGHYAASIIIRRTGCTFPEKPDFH

| pIC50 ([1]; Table 1, adenosine kinase) | pIC50 ([1]; Table 2, adenosine kinase) | SMILES | other results |
| --- | --- | --- | --- |
| 7.82 | – | O[C@@H]1[C@H](O)[C@@H](Nc2ccc(Br)cc2)C[C@H]1n1cc(I)c2c(Cl)ncnc21 | – |
| 6.82 | – | O=C(O)CN[C@H]1C[C@@H](n2cc(I)c3c(Cl)ncnc32)[C@H](O)[C@@H]1O [drawing 14: R4=HO2 CCH2 NH; R5=Cl; R6=I, N7-((1'R,2'S,3'R,4'S)-2',3'-dihydroxy-4'-(carboxymethylene)amino-cyclopentyl)-4-chloro-5-iodo-pyrrolopyrimidine] | – |
| – | 6.32 | CN(C)CC(=O)N[C@H]1C[C@@H](n2cc(I)c3c(Cl)ncnc32)[C@H](O)[C@@H]1O [drawing 27: R=(CH3)2 NCH2 CO, N7-((1'R,2'S,3'R,4'S)-2',3'-dihydroxy-4'-(dimethylaminoacetyl)amino-cyclopentyl)-4-chloro-5-iodo-pyrrolopyrimidine] | – |
| – | 7.49 | NCC(=O)N[C@H]1C[C@@H](n2cc(I)c3c(Cl)ncnc32)[C@H](O)[C@@H]1O [drawing 27: R=NH2 CH2 CO, N7-((1'R,2'S,3'R,4'S)-2',3'-dihydroxy-4'-(amino-acetyl)amino-cyclopentyl)-4-chloro-5-iodo-pyrrolopyrimidine] | – |
| – | 6.60 | O=C(Cc1cccnc1)N[C@H]1C[C@@H](n2cc(I)c3c(Cl)ncnc32)[C@H](O)[C@@H]1O | – |
| 5.52 | – | N[C@@H]1C=C[C@H](n2cc(I)c3c(Cl)ncnc32)C1 | – |
| 7.42 | – | Nc1ncnc2c1c(I)cn2[C@@H]1C[C@H](Nc2ncccn2)[C@@H](O)[C@H]1O | – |
| 7.32 | – | NC(=O)C[C@H](N[C@H]1C[C@@H](n2cc(I)c3c(Cl)ncnc32)[C@H](O)[C@@H]1O)C(=O)O | – |
| 6.70 | – | CC(C)(C)OC(=O)[C@H](CC(N)=O)N[C@H]1C[C@@H](n2cc(I)c3c(Cl)ncnc32)[C@H](O)[C@@H]1O | – |
| 7.70 | – | Nc1ncnc2c1c(I)cn2[C@@H]1C[C@H](Nc2ccc(Cl)nn2)[C@@H](O)[C@H]1O | – |
| – | 6.76 | O=C(Cc1ccccn1)N[C@H]1C[C@@H](n2cc(I)c3c(Cl)ncnc32)[C@H](O)[C@@H]1O | – |
| – | 6.52 | COC(=O)N[C@H]1C[C@@H](n2cc(I)c3c(Cl)ncnc32)[C@H](O)[C@@H]1O [drawing 27: R=CH3 OCO, N7-((1'R,2'S,3'R,4'S)-2',3'-dihydroxy-4'-(methoxycarbonyl)amino-cyclopentyl)-4-chloro-5-iodo-pyrrolo-pyrimidine] | – |

The next lines start with the compound.

| SMILES | pIC50 ([1]; Table 1, adenosine kinase) | pIC50 ([1]; Table 2, adenosine kinase) | other results |
| --- | --- | --- | --- |
| Nc1ncnc2c1c(I)cn2[C@@H]1O[C@H](CO)[C@@H](O)[C@H]1O [5-iodotubercidin] | – | – | reported to inhibit adenosine kinase; the most potent [2]: most potent |
| CC(C)(C)OC(=O)[C@H](CC(N)=O)N([C@H]1C[C@@H](n2cc(I)c3c(Cl)ncnc32)[C@H](O)[C@@H]1O)S(=O)(=O)c1ccc([N+](=O)[O-])cc1[N+](=O)[O-] | 6.46 | – | – |
| N[C@@H]1CC[C@H](n2cc(I)c3c(Cl)ncnc32)C1 | 6.48 | – | – |
| N[C@H]1C[C@@H](n2cc(-c3ccccc3)c3c(Nc4ccccc4)ncnc32)[C@H](O)[C@@H]1O [drawing 14: R4=NH2; R5=NHPh; R6=Ph] | 7.46 | – | – |
| C[C@H]1O[C@@H](n2cc(I)c3c(N)ncnc32)[C@H](O)[C@@H]1O [5'-deoxy-5-iodotubercidin] | – | – | reported to inhibit adenosine kinase; the most potent [2]: most potent |
| CC(=O)O[C@@H]1[C@H](OC(C)=O)[C@@H](OC(C)=O)C[C@H]1n1cc(I)c2c(Cl)ncnc21 [drawing 24: R5=Cl; R6=I, N7-((1'R,2'S,3'R,4'S)-2',3',4'-triacetoxycyclopentyl)-4-chloro-5-iodo-pyrrolopyrimidine] | – | < 4.00 | – |
| CC(C)(C)OC(=O)CN[C@H]1C[C@@H](n2cc(I)c3c(Cl)ncnc32)[C@H](O)[C@@H]1O [drawing 14: R4=t-buOCOCH2 NH; R5=Cl; R6=I, N7-((1'R,2'S,3'R,4'S)-2',3'-dihydroxy-4'-(t-butoxycarbonyl-methylene)amino-cyclopentyl)-4-chloro-5-iodo-pyrrolopyrimidine] | 7.55 | – | – |
| N[C@H]1C[C@@H](n2cc(C#Cc3ccccc3)c3c(C#Cc4ccccc4)ncnc32)[C@H](O)[C@@H]1O [drawing 14: R4=NH2; R5=C≡C--Ph; R6=C≡C--Ph] | 8.40 | – | – |
| NC[C@H]1O[C@@H](n2cnc3c(N)ncnc32)[C@H](O)[C@@H]1O [5'-amino,5'-deoxyadenosine] | – | – | reported to inhibit adenosine kinase; the most potent [2]: most potent |
| CC(=O)O[C@@H]1[C@H](OC(C)=O)[C@@H](OC(C)=O)C[C@H]1n1cc(Cl)c2c(Cl)ncnc21 [drawing 24: R5=Cl; R6=Cl, N7-((1'R,2'S,3'R,4'S)-2',3',4'-triacetoxycyclopentyl)-4,5-dichloro-pyrrolopyrimidine] | – | < 5.00 | – |
